This note sets out measurements from ChEMBL document CHEMBL1152375 (Bioorg Med Chem Lett, 2009).

Assay [1] concerns the target T1, Hydroxycarboxylic acid receptor 3 (Homo sapiens, UniProt P49019). Nature of the assay: Agonist activity at GPR109b receptor transfected in CHOK1 cells assessed as inhibition of forskolin-induced cAMP generation by HTRF assay. The class given is functional, cell-based, CHO-K1.
Assay [2] has as its target Hydroxycarboxylic acid receptor 2 (Homo sapiens) (UniProt Q8TDS4). Nature of the assay: Agonist activity at GPR109a receptor transfected in CHOK1 cells assessed as inhibition of forskolin-induced cAMP generation at 30 pM to 100 uM by HTRF assay. The class given is functional, cell-based. To be noted: CHO-K1. Background: Time-resolved FRET reads energy transfer from a long-lived donor to a nearby acceptor.

Assay [3] concerns the target T1, Hydroxycarboxylic acid receptor 3. To be noted: CHO-K1; 30 pM.
For assay [4] the target is unchanged. The experiment in a line: Agonist activity at GPR109b receptor transfected in forskolin-stimulated CHOK1 cells assessed as cAMP generation at 10 uM by HTRF assay. The class given is functional, cell-based. To be noted: CHO-K1.

Molecules are shown by their SMILES. Calls of active or inactive are those of the source. No cut-off for these calls is given here.

Hydroxycarboxylic acid receptor 2 (Homo sapiens), sequence (Q8TDS4 whole entry): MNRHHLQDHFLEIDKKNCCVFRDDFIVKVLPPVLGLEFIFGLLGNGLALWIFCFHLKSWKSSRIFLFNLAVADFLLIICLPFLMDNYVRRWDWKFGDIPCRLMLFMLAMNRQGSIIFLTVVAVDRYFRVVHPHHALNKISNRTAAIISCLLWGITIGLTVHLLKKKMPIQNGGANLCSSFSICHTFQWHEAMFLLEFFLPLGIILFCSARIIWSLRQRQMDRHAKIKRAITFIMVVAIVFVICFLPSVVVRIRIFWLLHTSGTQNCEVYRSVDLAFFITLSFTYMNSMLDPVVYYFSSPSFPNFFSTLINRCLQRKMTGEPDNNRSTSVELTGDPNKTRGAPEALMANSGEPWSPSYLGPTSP
T1 sequence (P49019 whole entry): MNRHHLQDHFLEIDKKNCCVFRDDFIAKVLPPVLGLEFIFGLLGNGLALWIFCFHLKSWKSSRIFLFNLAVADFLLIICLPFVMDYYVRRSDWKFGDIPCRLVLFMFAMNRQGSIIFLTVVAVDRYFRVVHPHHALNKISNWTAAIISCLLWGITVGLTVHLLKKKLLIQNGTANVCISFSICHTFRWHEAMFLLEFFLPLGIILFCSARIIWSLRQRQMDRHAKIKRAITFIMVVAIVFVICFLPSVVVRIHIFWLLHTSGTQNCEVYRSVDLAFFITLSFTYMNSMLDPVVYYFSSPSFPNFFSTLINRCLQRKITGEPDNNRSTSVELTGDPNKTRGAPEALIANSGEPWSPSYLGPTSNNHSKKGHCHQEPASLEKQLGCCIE

What is called EC50 is the concentration at which the effect is half-maximal. With `O=C(O)c1cc(N(Cc2ccccc2F)Cc2ccccc2F)[nH]n1`, in assay [1], the concentration giving a half-maximal response (EC50) is 8.71 µM. Moreover, the pEC50 entry in assay [2] was “inactive”.
For `O=C(O)c1cc(N(CC2CC2)CC2CC2)[nH]n1`, in that order: 3.98 µM and “inactive”.
For `O=C(O)c1cc(N(CCc2ccccc2)CCc2ccccc2)[nH]n1`, the concentration for a half-maximal effect (EC50) in assay [1] was 5.62 µM.
Same read-out and setting: with `O=C(O)c1cc(N(Cc2cccc(F)c2)Cc2cccc(F)c2)[nH]n1` the figure was > 10 µM; with `O=C(O)c1cc(N(Cc2cccs2)Cc2cccs2)[nH]n1`, 0.257 µM.
For the molecule `O=C(O)c1cc(N(Cc2ccccc2)Cc2ccccc2)[nH]n1`, the EC50 in assay [1] was 0.851 µM.
As to `Cc1ccc(CN(Cc2ccc(C)s2)c2cc(C(=O)O)n[nH]2)s1`, the pEC50 result in assay [3] is “inactive”.
Still for that read-out and setting: with `O=C(O)c1cc(NCc2ccccc2)[nH]n1` the entry was “inactive”.
For the molecule `O=C(O)c1cc(N(Cc2ccsc2)Cc2ccsc2)[nH]n1`, the EC50 in assay [1] was 0.00316 µM.
With `CCC(C)Nc1cc(C(=O)O)n[nH]1` (stereo unspecified), the EC50 in assay [1] is 4.47 µM. The pEC50 entry in assay [2] was “inactive”.
On to `O=C(O)c1cc(N(Cc2ccsc2)Cc2ccco2)[nH]n1`, for which the half-maximal effective concentration (EC50) in assay [1] was > 10 µM.
As for `O=C(O)c1cc(N(Cc2ccc(F)cc2)Cc2ccc(F)cc2)[nH]n1`, the concentration giving a half-maximal response (EC50) in assay [1] was > 10 µM. Also, the pEC50 result in assay [2] is “inactive”.
For `O=C(O)c1cc(N(Cc2ccsc2)Cc2cccs2)[nH]n1`, the concentration giving a half-maximal response (EC50) in assay [1] is 0.141 µM.
For the molecule `O=C(O)c1cc(N(Cc2ccc(Br)s2)Cc2ccc(Br)s2)[nH]n1`, in assay [3], the pEC50 result is “inactive”.
In the case of `O=C(O)c1cc(N(Cc2ccoc2)Cc2ccoc2)[nH]n1`, the concentration for a half-maximal effect (EC50) in assay [1] was 8.91 µM. For the same molecule, the pEC50 entry in assay [2] is “inactive”.
On to `C=CCNc1ccc(C(=O)O)cn1`, for which, in assay [1], the EC50 is 0.0417 µM. For the same molecule, the Activity in assay [4] is 200%.
With `CCCC(C)Nc1cc(C(=O)O)n[nH]1` (stereo unspecified), the EC50 in assay [1] is 6.76 µM. In addition, the pEC50 entry in assay [2] was “inactive”.
On to `O=C(O)c1cc(N(Cc2ccccc2)Cc2ccsc2)[nH]n1`, for which, in assay [1], the EC50 was 0.0145 µM.
On the same count and under the same terms, with `CCCN(CCC)c1cc(C(=O)O)n[nH]1` the figure was 8.32 µM.
For the molecule `O=C(O)c1cc(N(CC2CCCCC2)CC2CCCCC2)[nH]n1`, in assay [3], the pEC50 entry was “inactive”.
The same measure, in the same setting: with `O=C(O)c1cc(N(Cc2ccc(F)cc2)Cc2ccsc2)[nH]n1` the entry was “inactive”.
For `CC(C)CCN(CCC(C)C)c1cc(C(=O)O)n[nH]1`, the concentration for a half-maximal effect (EC50) in assay [1] is > 10 µM.
For the molecule `CCCCCCN(CCCCCC)c1cc(C(=O)O)n[nH]1`, the EC50 in assay [1] is > 10 µM.
In the case of `O=C(O)c1cc(N(Cc2ccoc2)Cc2ccsc2)[nH]n1`, in assay [3], the pEC50 entry was “inactive”.
